Measured values: ChEMBL document CHEMBL3351574, “Antitubercular activity of quinolizidinyl/pyrrolizidinylalkyliminophenazines” (Bioorg Med Chem, 2014)
In brackets after ≈: the same amount, converted by molar mass. Counter-ions that a name gives are not always drawn.

Assays:
[1] = test system: Mycobacterium tuberculosis; assay: Antitubercular activity against Mycobacterium tuberculosis; assay type: functional
[2] = Cytotoxicity against human HMEC1 cells assessed as reduction in cell viability after 72 hrs by MTT method; assay type: cell-based, HMEC-1
[3] = Cytotoxicity against african green monkey Vero 76 cells assessed as reduction in cell viability after 48 to 96 hrs by MTT method; assay type: cell-based; settings: chlorocebus sabaeus
[4] = test system: Mycobacterium tuberculosis; assay: microbe, parasite or virus in culture; settings: H37Rv, 168 h
Description: Antitubercular activity against Mycobacterium tuberculosis H37Rv after 7 days by REMA resazurin microtiter assay

Mycobacterium avium = assay type: functional; settings: 168 h
[5] = test system: Mycobacterium tuberculosis; assay: microbe, parasite or virus in culture; settings: isolate 917/10, 168 h
Description: Antitubercular activity against Mycobacterium tuberculosis isolate 917/10 after 7 days by REMA resazurin microtiter assay

[6] = test system: Mycobacterium tuberculosis; assay: microbe, parasite or virus in culture; settings: isolate 439/11, 168 h
Description: Antitubercular activity against Mycobacterium tuberculosis isolate 439/11 after 7 days by REMA resazurin microtiter assay

[7] = Cytotoxicity against human MT4 cells assessed as reduction in cell viability after 96 hrs by MTT method; assay type: cell-based
in vitro [8] = settings: monkey, Vero 76 cells
Description: Selectivity index, ratio of CC50 for african green monkey Vero 76 cells to MIC for Mycobacterium tuberculosis H37Rv

[9] = test system: Mycobacterium tuberculosis; assay: microbe, parasite or virus in culture; settings: isolate 778/10, 168 h
Description: Antitubercular activity against Mycobacterium tuberculosis isolate 778/10 after 7 days by REMA resazurin microtiter assay

in vitro [10] = settings: human, MT4 cells
Description: Selectivity index, ratio of CC50 for human MT4 cells to MIC for Mycobacterium tuberculosis H37Rv

in vitro [11] = settings: human, HMEC1 cells
Description: Selectivity index, ratio of CC50 for human HMEC1 cells to MIC for Mycobacterium tuberculosis H37Rv

[12] = test system: Mycobacterium tuberculosis; assay: microbe, parasite or virus in culture; settings: isolate 29/10, 168 h
Description: Antitubercular activity against Mycobacterium tuberculosis isolate 29/10 after 7 days by REMA resazurin microtiter assay

[13] = test system: Mycobacterium tuberculosis; assay: microbe, parasite or virus in culture; settings: isolate 756/10, 168 h
Description: Antitubercular activity against Mycobacterium tuberculosis isolate 756/10 after 7 days by REMA resazurin microtiter assay

[14] = Lipophilicity, logD of the compound at pH 7.4; assay type: physicochemical; settings: buffer
[15] = test system: Mycobacterium tuberculosis; assay type: functional; settings: H37Ra, 168 h
[16] = Half life in human; assay type: ADME, organism-based; settings: in vivo

SMILES	CC50 at 72 h [2] [µM]	MIC [4] [µM]	MIC (Mycobacterium avium)	MIC [5]	MIC [6] [µM]	MIC [9] [µM]	selectivity ratio (in vitro [11])	MIC [12] [µM]	MIC [13]	MIC [15] [µM]	further results
OC(C[C@@H]1CCCN2CCCC[C@H]12)(c1ccccc1)c1ccc(-c2ccccc2)cc1 (stereo partly specified)											MIC [1]: ≤ 1 µg/mL
Clc1ccc(Nc2cc3nc4ccccc4n(-c4ccc(Cl)cc4)c-3c/c2=N/CC[C@H]2CCCN3CCCC[C@H]23)cc1	2.3	0.84 (≈ 0.501 µg/mL)	3.35 µM	0.84 µM	0.84 (≈ 0.501 µg/mL)	0.84 (≈ 0.501 µg/mL)	2.74	0.84 (≈ 0.501 µg/mL)	0.84 µM		CC50 [3]: 9.5 µM; CC50 at 96 h [7]: 1.8 µM; selectivity ratio (in vitro [8]): 11.3; selectivity ratio (in vitro [10]): 2.14
Clc1ccc(Nc2cc3nc4ccccc4n(-c4ccc(Cl)cc4)c-3c/c2=N/C[C@@H]2CCCN3CCCC[C@H]23)cc1	4.7	0.86 (≈ 0.501 µg/mL)	6.87 µM	0.86 µM	0.86 (≈ 0.501 µg/mL)	0.86 (≈ 0.501 µg/mL)	5.46	0.86 (≈ 0.501 µg/mL)	0.86 µM		CC50 [3]: 68 µM; CC50 at 96 h [7]: 4.5 µM; selectivity ratio (in vitro [8]): 79.1; selectivity ratio (in vitro [10]): 5.23; logD ([14]; read-out: logD): 5.54
Cl.Clc1ccc(Nc2cc3nc4ccccc4n(-c4ccc(Cl)cc4)c-3c/c2=N/CCC23CCCN2CCC3)cc1		> 16	> 16 µg/mL	> 16 µg/mL	6.25	12.5		0.78	> 16 µg/mL	26	
Cc1ccc(Nc2cc3nc4ccccc4n(-c4ccc(C)cc4)c-3c/c2=N/C[C@@H]2CCCN3CCCC[C@H]23)cc1	2.6						0.4				
Cc1c(N)ccc(NC[C@@H]2CCCN3CCCC[C@H]23)c1C											MIC [1]: ≤ 0.5 µg/mL
c1ccc(Nc2cc3nc4ccccc4n(-c4ccccc4)c-3c/c2=N/CC[C@@H]2CCCN3CCCC[C@H]23)cc1		7.58 (≈ 4 µg/mL)	15.2 µM	1.89 µM		1.89 (≈ 0.997 µg/mL)		1.89 (≈ 0.997 µg/mL)		3.79 (≈ 2 µg/mL)	
c1ccc(Nc2cc3nc4ccccc4n(-c4ccccc4)c-3c/c2=N/CCC23CCCN2CCC3)cc1 [listing 1 of 2 here]		0.88 (≈ 0.44 µg/mL)	28.1 µM	7.04 µM	0.88 (≈ 0.44 µg/mL)	1.76 (≈ 0.879 µg/mL)		0.88 (≈ 0.44 µg/mL)	28.1 µM	3.52 (≈ 1.76 µg/mL)	
Clc1cccc(C(C[C@@H]2CCCN3CCCC[C@H]23)c2ccccc2)c1 (stereo partly specified)											MIC [1]: ≤ 0.1 µg/mL
c1ccc(Nc2cc3nc4ccccc4n(-c4ccccc4)c-3c/c2=N/CC[C@H]2CCCN3CCCC[C@H]23)cc1		7.58 (≈ 4 µg/mL)								7.58 (≈ 4 µg/mL)	
C(=C1c2ccccc2-c2ccccc21)[C@@H]1CCCN2CCCC[C@H]12											MIC [1]: 0.156 µg/mL (≈ 0.495 µM)
Clc1ccc(Nc2cc3nc4ccccc4n(-c4ccc(Cl)cc4)c-3c/c2=N/CC[C@@H]2CCCN3CCCC[C@H]23)cc1	2.5	0.84 (≈ 0.501 µg/mL)	3.35 µM	0.84 µM	0.84 (≈ 0.501 µg/mL)	0.84 (≈ 0.501 µg/mL)	2.98	0.84 (≈ 0.501 µg/mL)	0.84 µM		CC50 [3]: 9 µM; CC50 at 96 h [7]: 1.2 µM; selectivity ratio (in vitro [8]): 10.7; selectivity ratio (in vitro [10]): 1.43; logD ([14]; read-out: logD): 5.52
CN[C@@H]1[C@H](O[C@H]2[C@H](O[C@H]3[C@H](O)[C@@H](O)[C@H](N=C(N)N)[C@@H](O)[C@@H]3N=C(N)N)O[C@@H](C)[C@]2(O)C=O)O[C@@H](CO)[C@H](O)[C@H]1O [STREPTOMYCIN SULFATE]		0.69		0.69 µM	0.17	0.34		0.69	0.69 µM		
c1ccc(Nc2cc3nc4ccccc4n(-c4ccccc4)c-3c/c2=N/C[C@H]2CCCN3CCCC[C@H]23)cc1		7.79 (≈ 4 µg/mL)	> 16 µg/mL	1.95 µM		1.95 (≈ 1 µg/mL)		1.95 (≈ 1 µg/mL)		3.89 (≈ 2 µg/mL)	
c1ccc(Nc2cc3nc4ccccc4n(-c4ccccc4)c-3c/c2=N/CCC[C@H]2CCCN3CCCC[C@H]23)cc1	5.5	7.38 (≈ 4 µg/mL)					0.74			0.92 (≈ 0.498 µg/mL)	CC50 [3]: 9.6 µM; CC50 at 96 h [7]: 5.8 µM; selectivity ratio (in vitro [8]): 1.3; selectivity ratio (in vitro [10]): 0.78
CC[C@@H](CO)NCCN[C@@H](CC)CO [ETHAMBUTOL]		14.4 (≈ 2.95 µg/mL)		14.4 µM	1.8 (≈ 0.368 µg/mL)	7.21 (≈ 1.47 µg/mL)		3.61 (≈ 0.738 µg/mL)	14.4 µM		
Clc1ccc(Nc2cc3nc4ccccc4n(-c4ccc(Cl)cc4)c-3c/c2=N/CCC23CCCN2CCC3)cc1	1.5						< 0.06				
c1ccc(Nc2cc3nc4ccccc4n(-c4ccccc4)c-3c/c2=N/CCC[C@@H]2CCCN3CCCC[C@H]23)cc1	8.3	7.38 (≈ 4 µg/mL)					1.12			7.38 (≈ 4 µg/mL)	CC50 [3]: 36 µM; CC50 at 96 h [7]: 1.6 µM; selectivity ratio (in vitro [8]): 4.88; selectivity ratio (in vitro [10]): 0.22
FC(F)(F)c1cccc(NC[C@@H]2CCCN3CCCC[C@H]23)c1											MIC [1]: 2.5 µg/mL (≈ 8 µM)
NNC(=O)c1ccncc1 [ISONIAZID]		1.82 (≈ 0.25 µg/mL)		1.82 µM	1.82 (≈ 0.25 µg/mL)	0.91 (≈ 0.125 µg/mL)		0.91 (≈ 0.125 µg/mL)	3.65 µM		
CO[C@H]1/C=C/O[C@@]2(C)Oc3c(C)c(O)c4c(O)c(c(/C=N/N5CCN(C)CC5)c(O)c4c3C2=O)NC(=O)/C(C)=C\C=C\[C@H](C)[C@H](O)[C@@H](C)[C@@H](O)[C@@H](C)[C@H](OC(C)=O)[C@@H]1C [RIFAMPIN]		0.3 (≈ 0.247 µg/mL)		0.61 µM	0.08 (≈ 0.0658 µg/mL)	0.15 (≈ 0.123 µg/mL)		0.15 (≈ 0.123 µg/mL)	0.3 µM		
c1ccc(Nc2cc3nc4ccccc4n(-c4ccccc4)c-3c/c2=N/C[C@@H]2CCCN3CCCC[C@H]23)cc1		15.6 (≈ 8.01 µg/mL)								15.6 (≈ 8.01 µg/mL)	
Cc1ccc(Nc2cc3nc4ccccc4n(-c4ccc(C)cc4)c-3c/c2=N/C[C@@H]2CCCN3CCCC[C@H]23)cc1.Cl		6.5	26 µM	26 µM	3.25	6.5		0.81	> 16 µg/mL	26	
Cc1ccc(NC[C@@H]2CCCN3CCCC[C@H]23)c2c(=O)c3ccccc3sc12											MIC [1]: 1.25 µg/mL (≈ 3.18 µM)
c1ccc(Nc2cc3nc4ccccc4n(-c4ccccc4)c-3c/c2=N/CCC23CCCN2CCC3)cc1 [listing 2 of 2 here]	3.2						3.64				
CC(C)/N=c1\cc2n(-c3ccc(Cl)cc3)c3ccccc3nc-2cc1Nc1ccc(Cl)cc1 [CLOFAZIMINE]	18.6	1.06 (≈ 0.502 µg/mL)	4.23 µM	1.06 µM	1.06 (≈ 0.502 µg/mL)	1.06 (≈ 0.502 µg/mL)	17.6	1.06 (≈ 0.502 µg/mL)	1.06 µM		CC50 [3]: > 100 µM; CC50 at 96 h [7]: 6.8 µM; half-life [16]: 70 days; selectivity ratio (in vitro [8]): > 94; selectivity ratio (in vitro [10]): 6.41; logD [14]: 6.36
Clc1ccc(Nc2cc3nc4ccccc4n(-c4ccc(Cl)cc4)c-3c/c2=N/CCC[C@H]2CCCN3CCCC[C@H]23)cc1	3.1	0.82 (≈ 0.501 µg/mL)	3.28 µM	0.82 µM	0.82 (≈ 0.501 µg/mL)	0.82 (≈ 0.501 µg/mL)	3.78	0.82 (≈ 0.501 µg/mL)	0.82 µM		CC50 [3]: 9 µM; CC50 at 96 h [7]: 1.5 µM; selectivity ratio (in vitro [8]): 11; selectivity ratio (in vitro [10]): 1.83
